Earlier results on 5 substances are cited in patent US9510613B2, “Panaxadiol-containing composition” (LION CORPORATION, priority 2011, dated 2016).

The conditions of the data set: commercial component, Table 3.
Turning to Glycerin Monostearate Citrate, the HLB is listed as 9.5.
Consider Sucrose Palmitic Acid Ester, for which the HLB is given as 16.
In the case of Sucrose Stearic Acid Ester, the HLB is 16.
Turning to Sucrose Myristic Acid Ester, the HLB is 16.
In the case of Sucrose Lauric Acid Ester, the HLB is given as 16.
